Row | melting point | SMILES
1 | 44 °C | CCOc1cc2c(cc1Cc1ccc3c(c1)OCO3)OCO2
2 | 179 to 180 °C | COc1cc2c(c(Cl)c1Cl)C(=O)C(C)(c1ccc([N+](=O)[O-])cc1)C2 (stereo unspecified)
3 | 55 to 56 °C | CN(CCCc1ccccc1)[C@H]1CC[C@H](c2ccc([N+](=O)[O-])cc2)CC1
4 | 227 °C | O=C1CC(c2ccccc2)c2cccc(CCN3CCN(c4nsc5ccccc45)CC3)c2N1 (stereo unspecified)
5 | 137 to 138 °C | CCOC(=O)c1cc(-c2ccc(N)cc2)cnc1C
6 | 65 °C | CCCCc1nc(Cl)c(CC(=O)OCC)c(Cc2ccc(C(=O)OC(C)(C)C)cc2)n1
7 | 76 to 77 °C | CC(=O)CCc1ccc(-c2ccccc2)cc1
8 | 207 to 212 °C | CN1C(=O)CC[C@]2(C)c3ccc(-c4nc5ccccc5s4)cc3CC[C@@H]12
9 | 264 °C | Cn1nc(-c2cnc(N)nc2-c2ccc(Cl)cc2)ccc1=O
10 | 117 to 118 °C | CCOC(=O)CS(=O)(=O)c1ccc(C=C(C)c2ccc3c(c2)C(C)(C)CCC3(C)C)cc1
11 | 210 to 211 °C | CCSc1nc2cccc(C(=O)OC)c2n1Cc1ccc(-c2ccccc2-c2nc(=O)o[nH]2)cc1
12 | 115 to 117 °C | CC(C)OCCn1c(C2CCN(CCc3ccc(C(C)(C)C)cc3)CC2)nc2ccccc21
13 | 103 to 104 °C | CCOC(=O)c1ccc(-c2ccc(OC)cc2)cc1
14 | 105 °C | CSCCn1nc(-c2ccc(OCCCC(F)(F)F)cc2)oc1=O
15 | 173 to 174 °C | N=C(Nc1ccccc1)Nc1ncccc1OCc1ccc(Cl)cc1
16 | 208 to 212 °C | NC(=O)N1c2ccccc2C=C([N+](=O)[O-])c2ccccc21
17 | 173 to 175 °C | CSc1nc(-c2ccncc2)n(-c2ccc(C(C)C)cc2)c(=O)c1C#N
18 | 129 to 130 °C | CCOC(=NC(=O)c1cc(C(F)(F)F)cc(C(F)(F)F)c1)N1Cc2ccccc2-c2ccccc2C1

Row | melting point | SMILES
19 | 227 to 230 °C | CCc1cccc(CC)c1NC(=O)NC1(c2ccccc2)CCC1
20 | 162 to 164 °C | CS(=O)(=O)Nc1ccc(C(=O)C2CCN(CCCOc3ccc([N+](=O)[O-])cc3)CC2)cc1
21 | 41 °C | CCCc1ccc(-c2ccc(-c3ccc(CC)cc3)cc2F)s1
22 | > 65 °C | COc1ccc(Cn2ncc3c4c(cnc32)CN(C(=O)Nc2ccccc2)CC4)cc1
23 | 230 to 233 °C | O=C(NC(=O)c1c(Cl)cccc1Cl)Nc1ccc(-c2ccc(Cl)cc2)cn1
24 | 113 to 114 °C | O=[N+]([O-])c1cc(F)c(-c2ccc(C(F)(F)F)cc2)cc1F
25 | 194 to 198 °C | O=C1CN(c2cccc(Cl)c2)C(=O)N1S(=O)(=O)c1ccc2ccccc2c1
26 | 240 to 243 °C | O=C(Nc1ccccc1C(c1ccc(O)cc1)c1ccc(O)cc1)c1cccs1
27 | 105 to 107 °C | Nc1nc2ccccc2c2c1ncn2CCCCNC(=O)c1cccc(Oc2ccccc2)c1
28 | > 230 °C | COc1ccc2c(c1)c(CC1=CC(=O)N=N1)c(C)n2C(=O)c1ccc(Cl)cc1
29 | 58 to 60 °C | CCN(CC)SNc1ccc(Oc2ccc(C(F)(F)F)cc2Cl)cc1F
30 | 188 to 190 °C | O=C(Nc1ccc(Oc2ncnc3cc4c(cc23)OCCOCCOCCO4)c(F)c1)c1c[nH]cc(-c2ccc(F)cc2)c1=O
31 | 141 to 144 °C | Cc1ccc(C(=O)NCc2ccccc2)cc1-c1nc(NCCCN(C)C)nc2c1CNC(=O)N2c1c(F)cccc1F
32 | 201 to 202 °C | CCOC(=O)c1cc(=O)c2cc3c(=O)cc(C(=O)OCC)oc3cc2[nH]1
33 | 220 to 222 °C | Cc1cccc(-c2nc(NC(=O)c3cccnc3)sc2-c2ccnc(NCc3ccccc3)c2)c1
34 | 166 to 179 °C | CCCCNS(=O)(=O)c1ccc(N2CCC(NC[C@H](O)COc3cccc4[nH]c5ccccc5c34)CC2)cc1
35 | 126 to 128 °C | CCCCCCOC(=O)NC(=N)c1ccc(NCc2nc3cc(C(=O)N(CCC(=O)OCC)c4ccccn4)ccc3n2C)cc1
36 | 196 to 198 °C | COc1cc(OC)c(-c2cccs2)cc1/C=C/C(=O)c1ccccc1C(=O)O

Continued, molecule first:

Row | SMILES | melting point
37 | CC(C)c1nn(-c2ccc(C(F)(F)F)nn2)cc1CCCO | 113 to 114 °C
38 | CCN(CC)C(=O)n1nc(NC)n(C)c1=O | 83 to 85 °C
39 | O=c1cc(O)c2c([nH]1)CCCC2 | > 300 °C
40 | Cn1cc(C(=O)O)c([N+](=O)[O-])n1 | 185 to 187 °C
41 | CC(=O)C1CCC2C3CCC4CC=CCC4(C)C3C(N)CC12C (stereo unspecified) | 127 to 129 °C
42 | Cc1cc2nc(N)[nH]c(=O)c2[nH]1 | 252 to 254 °C
43 | O=C(Nc1ccc(-n2nc(C(F)(F)F)cc2C(F)(F)F)cc1)c1ccoc1 | 206 to 207 °C
44 | CC1=NN(C)c2nc(C)c(CCN3CCN(c4n[nH]c5ccccc45)CC3)c(=O)n2C1 | 199 °C
45 | N#CN(c1ccccc1)S(=O)(=O)c1ccccc1 | 65 to 66 °C
46 | Cc1ccc(N)c(C(=S)NCC2CC2)c1 | 124 °C
47 | O=C(C=Cc1cccnc1)NCCCOC1CCN(Cc2ccccc2)CC1 | 100 to 102 °C
48 | CC1CCC2(OC1)OC1CC3C4CCC5CC(=O)CCC5(C)C4CCC3(C)C1C2C (stereo unspecified) | 209 to 211 °C
49 | N=C(N)Nc1cc(Cl)ccc1N1CCOCC1 | 135 to 138 °C
50 | COCS(=O)(=O)[C@H](C)[C@](O)(Cn1cncn1)c1ccc(F)cc1F | 102 to 103 °C
51 | CCNc1nc(OC)c(C(=O)NCCN(CC)CC)nc1Cl | 142 °C
52 | COc1ccc2c(c1)C13CCN(C)C(C2)C1CCC(=O)C3 (stereo unspecified) | 187 to 188 °C
53 | COc1cc(OC)nc(Oc2cc(C)nc(-c3ccccc3)c2C(=O)O)n1 | 277 to 284 °C
54 | CON(C(=O)c1cn(C)nc1C(F)F)C(C)c1ccc(I)cc1 (stereo unspecified) | 72 to 74 °C
55 | N#CCCNC(=S)C1CC(CF)(CF)Oc2ccc([N+](=O)[O-])cc21 (stereo unspecified) | 183 to 184 °C
56 | COc1cc(CC2(C#N)c3cc(Cl)c(Cl)cc3C=CN2C(=O)c2ccccc2)cc(OC)c1OC (stereo unspecified) | 193 to 195 °C
57 | CSCCCNC(=O)N(O)C[C@@H]1C[C@H]1c1ccccc1 (relative stereo) | 103 to 104 °C
58 | Nc1ccc(S(=O)(=O)Nc2nnc(CC(=O)O)s2)cc1 | 209 to 210 °C

Row | SMILES | melting point
59 | CC(C)CNCC(=O)Nc1ccc2c(c1)C(=O)c1cc(NC(=O)CNCC(C)C)ccc1C2=O | 146 °C
60 | CCOC(=O)C(CC#N)(C(=O)OCC)C1COC(=O)C1 (stereo unspecified) | 77 to 78 °C
61 | CS(=O)(=O)c1ccc(C(O)C(CF)NC(=O)C(F)F)cc1 (stereo unspecified) | 141 to 142 °C
62 | NCCNc1ccc2ccccc2n1 | 124 to 125 °C
63 | COC(=O)C1Cc2cc3c(cc2C(=O)CS1)OCO3 (stereo unspecified) | 165 to 166 °C
64 | O=C(CCc1cc(Br)c(OC(=O)c2c3ccccc3nc3ccccc23)c(Br)c1)ON1C(=O)CCC1=O | 175 to 176 °C
65 | O=C(CO)Nc1ccc(O)cc1 | 141 to 143 °C
66 | C=CCOc1cc(-n2c(OC)nc(C(F)(F)F)cc2=O)c(F)cc1Cl | 103 to 104 °C
67 | Cc1nc(Cl)c2c(C)cn(-c3c(Cl)cc(Br)cc3Br)c2n1 | 157 to 159 °C
68 | CC(C)(C)OC(=O)NCCCCC(=O)Nc1ccc(O)c(C(=O)O)c1 | 181 °C
69 | Cc1c(Oc2nccs2)ccc(C(=O)O)c1Cl | 150 to 152 °C
70 | CCn1cc(C(=O)O)c(=O)c2cc(Cl)c(N3CCN(c4ccccc4)CC3)cc21 | 234 to 235 °C
71 | CCOC(=O)c1csc(N2CCSCC2)n1 | 99 to 100 °C
72 | CCCc1oc(C)cc1C(=O)O | 91 to 102 °C
73 | CN(Cc1ccc2c(c1)Nc1nccnc1S2)C(N)=C[N+](=O)[O-] | > 265 °C
74 | C=CCc1cc2c(C)c(C#N)c(=O)oc2c(C)c1O | 163 to 164 °C
75 | CCCCCCOc1ccc2[nH]c(C)c(CC(=O)O)c2c1 | 65 to 67 °C
76 | Cc1nc(C)c(C(C)(O)c2ccoc2)o1 (stereo unspecified) | 93 to 95 °C
77 | O=C(NCc1ccccn1)Nc1cc(N2C(=O)COc3ccccc32)ccn1 | 206 to 207 °C
78 | Cc1ccc([N+](=O)[O-])cc1S(=O)(=O)n1c(Br)nc(Br)c1C | 187 to 189 °C
79 | CC(C)NCC(O)c1ccccc1 (stereo unspecified) | 90 °C
80 | Cc1cccc(OC2SCC(O)C(O)C2O)n1 (stereo unspecified) | 54 °C

Row | SMILES | melting point
81 | CC(O)(C(=O)Nc1ccc(S(=O)(=O)c2ccccc2)cc1)C(F)(F)F (stereo unspecified) | 164 to 166 °C
82 | CCC(=O)CNC(=O)c1cc(OC)cc(Oc2cccc(C(F)(F)F)c2)n1 | 100 to 103 °C
83 | COC(=O)NNC(=S)Cc1ccccc1 | 93.5 to 94 °C
84 | COC(=O)Nc1cccc(C)c1CNc1cccn2c(CO)c(C)nc12 | 170 to 172 °C
85 | Clc1ccc(Cl)c(CN2CCNc3ncc(I)cc32)c1 | 169 °C
86 | Nc1nc(Cl)cc(NCC2(CO)CC(O)C2)n1 (stereo unspecified) | 136 to 139 °C
87 | COc1ccc2[nH]c3c(c2c1[N+](=O)[O-])CCC3=O | 293 °C
88 | O=C1c2ccccc2-n2cnc(-c3noc(CCl)n3)c2[C@@H]2CCCN12 | 205 to 206 °C
89 | O=C1C(O)=C(C2CCCCC2)C(=O)c2ccccc21 | 128 to 130 °C
90 | CCc1cccc(CC)c1N(C=O)CC(=O)O | 139 to 141 °C
91 | COc1nc(C)nc(NC(=O)NS(=O)(=O)c2cc(Br)cc3c2OS(=O)(=O)C(C)=C3)n1 | 196 to 198 °C
92 | Nc1nonc1-c1nc2ccccc2n1CC(=O)C=Cc1ccccc1 | 176 to 180 °C
93 | O=C(NC1CCCN(Cc2ccccc2)C1)c1ccc2[nH]ncc2c1 (stereo unspecified) | 203 to 204 °C
94 | N#CC(C#N)(OC(=O)c1ccc(Cl)c(Cl)c1)c1ccc(Cl)c(Cl)c1 | 110 °C
95 | FC(F)(F)c1cc(Cl)c(-c2nc(C(F)(F)F)c(Br)[nH]2)c(Cl)c1 | 295 °C
96 | CC(=O)N(C)c1ccc(Cl)c(COc2cccn3c(Br)c(C)nc23)c1Cl | 201 to 204 °C
97 | Cc1c(Cl)cc(C(=O)O)c(Cl)c1N | 218 to 221 °C
98 | CCOC(=O)c1cnc2nc(S(=O)(=O)Cl)nn2c1C | 65 to 69 °C
99 | CC(C)(C)OC(=O)NCCCCC(=O)N[C@@H](CC(=O)OCc1ccccc1)C(=O)N[C@@H](Cc1ccccc1)C(=O)OCc1ccccc1 | 120 °C
100 | Cc1c(C)c(S(=O)(=O)C[N+](=O)[O-])c(C)c2c1OCCC2 | 104 to 106 °C
101 | CCOC(=O)C1=C(C)NC(CCN(C)C)=C(C(=O)OCC)C1c1ccccc1/C=C/C(=O)OC(C)(C)C (stereo unspecified) | 150 to 151 °C

— a melting point compilation (Tetko et al.; mined from patent text by program, amines drawn as free bases though some values may be those of a salt)
